Reference: patent publication US9938281B2 (Merck Sharp & Dohme Corp., priority 2012, dated 2018)

Experiments:
[1] = biological target: T1, PI3K-delta (Homo sapiens, UniProt O00329); assay: HTRF PI3K biochemical assay, delta isoform; conditions: form screened (neutral or TFA salt) given, read-out: PI3Kdelta IC50
T1 construct: purchased Upstate; Millipore 14-604

[2] = biological target: T2, PI3K-alpha (Homo sapiens, UniProt P42336); assay: HTRF PI3K biochemical assay, alpha isoform; conditions: ratio PI3K-alpha IC50 value / PI3K-delta IC50 value
T2 construct: purchased Upstate; Millipore 14-602
T2 sequence (P42336 whole entry, canonical isoform): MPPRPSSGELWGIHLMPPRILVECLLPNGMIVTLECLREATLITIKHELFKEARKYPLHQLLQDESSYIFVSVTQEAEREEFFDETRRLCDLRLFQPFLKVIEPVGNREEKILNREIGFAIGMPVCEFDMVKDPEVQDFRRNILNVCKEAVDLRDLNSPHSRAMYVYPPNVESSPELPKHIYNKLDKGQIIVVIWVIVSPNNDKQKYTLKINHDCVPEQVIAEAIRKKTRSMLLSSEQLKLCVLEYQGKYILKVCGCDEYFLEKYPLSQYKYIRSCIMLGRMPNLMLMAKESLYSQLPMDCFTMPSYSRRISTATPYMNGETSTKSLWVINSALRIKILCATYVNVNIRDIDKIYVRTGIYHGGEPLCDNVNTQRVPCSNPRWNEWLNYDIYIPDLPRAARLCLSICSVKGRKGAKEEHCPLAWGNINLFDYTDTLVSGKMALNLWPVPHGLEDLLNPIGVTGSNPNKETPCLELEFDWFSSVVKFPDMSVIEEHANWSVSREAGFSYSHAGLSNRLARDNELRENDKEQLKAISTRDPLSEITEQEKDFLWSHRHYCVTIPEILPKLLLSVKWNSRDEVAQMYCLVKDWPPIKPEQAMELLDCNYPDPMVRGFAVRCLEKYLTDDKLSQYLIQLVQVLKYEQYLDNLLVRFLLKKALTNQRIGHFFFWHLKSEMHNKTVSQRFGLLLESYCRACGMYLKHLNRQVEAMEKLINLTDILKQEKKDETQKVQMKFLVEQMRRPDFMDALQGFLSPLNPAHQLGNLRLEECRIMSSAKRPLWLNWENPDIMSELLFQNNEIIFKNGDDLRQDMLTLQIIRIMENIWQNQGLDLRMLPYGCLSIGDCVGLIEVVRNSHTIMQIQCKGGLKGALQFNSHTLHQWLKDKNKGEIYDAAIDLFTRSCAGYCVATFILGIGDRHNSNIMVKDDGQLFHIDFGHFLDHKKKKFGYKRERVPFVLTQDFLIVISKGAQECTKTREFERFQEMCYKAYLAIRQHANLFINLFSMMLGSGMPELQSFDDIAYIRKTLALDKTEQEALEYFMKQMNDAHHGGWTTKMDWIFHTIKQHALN
T2 sequence (P27986 whole entry partner, canonical isoform): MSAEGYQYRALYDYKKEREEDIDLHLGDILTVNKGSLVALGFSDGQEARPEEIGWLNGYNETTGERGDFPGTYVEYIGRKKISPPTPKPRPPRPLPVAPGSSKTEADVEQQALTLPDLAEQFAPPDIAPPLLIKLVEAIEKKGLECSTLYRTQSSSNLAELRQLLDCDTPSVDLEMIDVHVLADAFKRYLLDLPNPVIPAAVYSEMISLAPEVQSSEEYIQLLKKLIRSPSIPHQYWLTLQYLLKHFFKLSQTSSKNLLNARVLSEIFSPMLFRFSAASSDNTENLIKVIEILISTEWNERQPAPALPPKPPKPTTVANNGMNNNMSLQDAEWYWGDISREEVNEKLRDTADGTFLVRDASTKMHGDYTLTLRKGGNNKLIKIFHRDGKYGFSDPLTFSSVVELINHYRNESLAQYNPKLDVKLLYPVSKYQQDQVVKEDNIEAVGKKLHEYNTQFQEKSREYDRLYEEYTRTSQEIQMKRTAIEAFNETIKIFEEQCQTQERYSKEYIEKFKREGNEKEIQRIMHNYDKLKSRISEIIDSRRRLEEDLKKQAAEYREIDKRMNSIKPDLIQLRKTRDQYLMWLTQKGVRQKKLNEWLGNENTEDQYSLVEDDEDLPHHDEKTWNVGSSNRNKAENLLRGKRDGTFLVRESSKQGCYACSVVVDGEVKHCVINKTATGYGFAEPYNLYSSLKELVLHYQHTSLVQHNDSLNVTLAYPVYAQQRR
Excerpt: The PI3-Kinase biochemical assays were developed to measure the intrinsic potency and compound dependent inhibition of the alpha, beta, delta, and gamma PI3K isoform enzymes. This assay was developed and further optimized from a kit produced by Upstate (Millipore catalog #33-047) and has been configured for HTS and SAR screening. Briefly, this procedure exploits the exquisite specificity and high affinity binding of enzyme reaction substrate phosphatidyl(3,4,5)triphosphate (PIP3) to the GRP1 pleckstrin homology (PH) domain to generate the signal. In the absence of PIP3, an HTRF (Homogeneous Time-Resolved Fluorescence energy transfer) complex is formed consisting of europium (Eu)-labeled anti-GST, GSTtagged GRP1-PH domain, biotin-PIP3 and streptavidin conjugated APC. The native PIP3 produced by PI3-Kinase activity disrupts in a competitive manner the biotin-PIP3 from the PH domain, resulting in the loss of energy transfer (HTRF complex) and a decrease in the signal. The format of this assay is the same for all 4 isoforms of PI3K; the differences lie in the concentration of enzyme used to achieve robust assay window. The alpha, beta, and delta assays are run at 0.5, 1, and 0.3 nM enzymes and the gamma assay is run at 5 nM enzyme. The ATP concentration is 100 uM in the alpha, beta, and delta assays and 50 uM ATP in the gamma assay. All reactions are run at 5 uM PIP2.
Compounds are serially diluted (3-fold in 100% DMSO) across a 384-well polypropylene source plated from column 3 to column 12 and column 13 to column 22, to yield 10 concentration dose response for each test compound. Columns 1, 2, 23 and 24 contain either only DMSO or pharmacological known control inhibitor.
The PI3-Kinase biochemical assay was optimized using the HTRF kit provided by Upstate (Millipore). The assay kit contains six reagents: 1) 4× Reaction Buffer; 2) native PIP2 (substrate); 3) Stop (EDTA); 4) Detection Mix A (Streptavidin-APC); 5) Detection Mix B (Eu-labeled Anti-GST plus GST-tagged PH-domain); 6) Detection Mix C.
PI3Kinase Reaction Buffer is prepared by dilution the stock 1:4 with de-ionized water. […] Enzyme addition and compound pre-incubation are initiated by the addition of 1.25 ul of PI3K (at twice its final concentration) in the 1× reaction buffer to all wells using a BioRaptor. Plates are incubated at room temperature for 15 minutes. Reactions are initiated by addition of 1.25 ul of 2× substrate solution (PIP2 and ATP in 1× reaction buffer) using BioRaptor. Plates are incubated in humidified chamber at room temperature for one hour. Reactions are quenched by addition of 0.625 uL of stop solution to all wells using the BioRaptor. The quenched reactions are then processed to detect product formation by adding 0.625 uL of Detection Solution to all wells using the BioRaptor (Detection mix C, Detection Mix A, and Detection Mix B combined together in an 18:1:1 ratio prepared 2 hours prior to use).
The loss of the HTRF signal is due to the displacement of biotinylated-PIP3 from the PH domain by the PI3K-dependent conversion of PIP2 to PIP3. This loss of signal is nonlinear with respect to both increasing product and time. This non-linear detection will impact accuracy of IC50 calculations; therefore, there is a need for a correction factor to obtain more accurate IC50 values. This correction is derived from a PIP3 standard curve run in a separate assay plate. All data were calculated using the ratio of acceptor (APC) to donor (Europium) fluorescence in each well of the assay plate. […] An IC50 was then calculated fitting the % inhibition data to the equation: % inhibition=min+(Max−min)/1+([inhibitor]/IC50)^n) where min is the % inhibition with inhibitor, max is the signal in DMSO control, and n is the Hill slope.
The determination of relative selectivity for a given compound is defined as the relative ratio of the (PI3K-alphalC50 value/PI3K-delta IC50 value).

T1 sequence (O00329 whole entry, canonical isoform): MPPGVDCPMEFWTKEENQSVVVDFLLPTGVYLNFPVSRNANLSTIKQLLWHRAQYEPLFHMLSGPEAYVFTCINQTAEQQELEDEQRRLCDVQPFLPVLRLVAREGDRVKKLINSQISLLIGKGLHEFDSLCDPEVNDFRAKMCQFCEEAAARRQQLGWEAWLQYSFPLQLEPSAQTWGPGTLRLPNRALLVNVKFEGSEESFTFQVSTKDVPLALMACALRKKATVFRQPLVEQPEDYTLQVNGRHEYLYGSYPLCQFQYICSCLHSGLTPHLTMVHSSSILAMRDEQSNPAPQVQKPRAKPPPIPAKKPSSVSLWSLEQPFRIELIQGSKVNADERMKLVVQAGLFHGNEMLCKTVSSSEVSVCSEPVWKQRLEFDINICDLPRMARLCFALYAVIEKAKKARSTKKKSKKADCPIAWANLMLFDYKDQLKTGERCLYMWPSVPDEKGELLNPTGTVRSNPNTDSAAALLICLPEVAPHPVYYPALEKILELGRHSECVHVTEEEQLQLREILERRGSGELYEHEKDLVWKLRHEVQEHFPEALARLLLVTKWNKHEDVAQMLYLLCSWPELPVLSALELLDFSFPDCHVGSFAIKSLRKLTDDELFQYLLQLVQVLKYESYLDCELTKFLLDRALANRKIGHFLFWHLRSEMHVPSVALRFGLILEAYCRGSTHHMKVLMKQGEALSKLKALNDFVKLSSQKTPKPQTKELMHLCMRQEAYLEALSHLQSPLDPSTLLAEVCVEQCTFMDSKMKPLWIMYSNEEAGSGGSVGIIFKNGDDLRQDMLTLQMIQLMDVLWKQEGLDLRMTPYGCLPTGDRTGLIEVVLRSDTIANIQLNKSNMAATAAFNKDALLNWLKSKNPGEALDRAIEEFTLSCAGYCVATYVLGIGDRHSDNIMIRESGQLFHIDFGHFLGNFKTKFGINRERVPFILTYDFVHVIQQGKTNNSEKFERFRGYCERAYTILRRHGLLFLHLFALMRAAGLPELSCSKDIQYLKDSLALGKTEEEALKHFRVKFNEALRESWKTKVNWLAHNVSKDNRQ
T1 sequence (P27986 whole entry partner, canonical isoform): as the sequence (P27986 whole entry partner, canonical isoform) above

Row | Compound | IC50 [1] | Selectivity versus PI3Kalpha [2]
1 | CCC(=O)N1CC[C@H](Nc2ncnc3c2nc(-c2cnc(OC)c(C)c2)n3C)C1 [Compound 2-12, (S)-1-(3-((8-(6-methoxy-5-methylpyridin-3-yl)-9-methyl-9H-purin-6-yl)amino)pyrrolidin-1-yl)propan-1-one] | 3.5 nM | >10
2 | CCC(=O)N1CC[C@H](N(C)c2ncnc3c2nc(-c2cnc(OC)c(C)c2)n3C)C1 [Compound 2-13, (S)-1-(3-((8-(6-methoxy-5-methylpyridin-3-yl)-9-methyl-9H-purin-6-yl)(methyl)amino)pyrrolidin-1-yl)propan-1-one] | 17 nM | >10
3 | CCC(=O)N1CC[C@H](Nc2ncnc3c2nc(-c2cnc(C(C)(C)C)s2)n3C)C1 [Compound 2-14, (S)-1-(3-((8-(2-(tert-butyl)thiazol-5-yl)-9-methyl-9H-purin-6-yl)amino)pyrrolidin-1-yl)propan-1-one] | 1.2 nM | >10
4 | CCC(=O)N1CC[C@H](Nc2ncnc3c2nc(-c2cnn(CC)c2C)n3CC)C1 [Compound 2-15, (S)-1-(3-((9-ethyl-8-(1-ethyl-5-methyl-1H-pyrazol-4-yl)-9H-purin-6-yl)amino)pyrrolidin-1-yl)propan-1-one] | < 1 nM | >10
5 | CCC(=O)N1CC[C@H](Nc2ncnc3c2nc(-c2cnn(CC)c2C)n3C2CC2)C1 [Compound 2-16, (S)-1-(3-((9-cyclopropyl-8-(1-ethyl-5-methyl-1H-pyrazol-4-yl)-9H-purin-6-yl)amino)pyrrolidin-1-yl)propan-1-one] | 53 nM | >10
6 | CCC(=O)N1CC[C@H](Nc2ncnc3c2nc(-c2cnc(C)nc2)n3CC)C1 [Compound 2-17, (S)-1-(3-((9-ethyl-8-(2-methylpyrimidin-5-yl)-9H-purin-6-yl)amino)pyrrolidin-1-yl)propan-1-one] | 2.7 nM | >10
7 | CCn1c(-c2cnc(C)nc2)nc2c(N[C@H]3CCN(C(=O)C4CCOCC4)C3)ncnc21 [Compound 2-18, (S)-(3-((9-ethyl-8-(2-methylpyrimidin-5-yl)-9H-purin-6-yl)amino)pyrrolidin-1-yl)(tetrahydro-2H-pyran-4-yl)methanone] | 2.4 nM | >10
8 | CCn1c(-c2cnc(C)nc2)nc2c(N[C@H]3CCN(C(=O)c4nc(C)oc4C)C3)ncnc21 [Compound 2-19, (S)-(2,5-dimethyloxazol-4-yl)(3-((9-ethyl-8-(2-methylpyrimidin-5-yl)-9H-purin-6-yl)amino)pyrrolidin-1-yl)methanone] | 2.1 nM | >10
9 | CCn1c(-c2cnc(C)nc2)nc2c(N[C@H]3CCN(C(=O)C4CC4)C3)ncnc21 [Compound 2-21, (S)-cyclopropyl(3-((9-ethyl-8-(2-methylpyrimidin-5-yl)-9H-purin-6-yl)amino)pyrrolidin-1-yl)methanone] | < 1 nM | >10
10 | CCn1c(-c2cnc(C)nc2)nc2c(N[C@H]3CCN(C(=O)C4CCC4)C3)ncnc21 [Compound 2-22, (S)-cyclobutyl(3-((9-ethyl-8-(2-methylpyrimidin-5-yl)-9H-purin-6-yl)amino)pyrrolidin-1-yl)methanone] | 1.7 nM | >10
11 | CCn1c(-c2cnc(C)nc2)nc2c(N[C@H]3CCN(C(=O)C4CCCC4)C3)ncnc21 [Compound 2-23, (S)-cyclopentyl(3-((9-ethyl-8-(2-methylpyrimidin-5-yl)-9H-purin-6-yl)amino)pyrrolidin-1-yl)methanone] | 8 nM | >10
12 | CCn1c(-c2cnc(C)nc2)nc2c(N[C@H]3CCN(C(=O)C4CC(F)(F)C4)C3)ncnc21 [Compound 2-24, (S)-(3,3-difluorocyclobutyl)(3-((9-ethyl-8-(2-methylpyrimidin-5-yl)-9H-purin-6-yl)amino)pyrrolidin-1-yl)methanone] | 6.8 nM | >10
13 | CCC(=O)N1CCC[C@H](Nc2ncnc3c2nc(-c2cnc(C)nc2)n3CC)C1 [Compound 2-27, 9-ethyl-8-(2-methylpyrimidin-5-yl)-N-[(3S)-1-propanoylpiperidin-3-yl]-9H-purin-6-amine] | 28 nM | >10
14 | CCn1c(-c2cnc(C)nc2)nc2c(N[C@H]3CCCN(C(=O)C4CC4)C3)ncnc21 [Compound 2-28, N-[(3S)-1-(cyclopropylcarbonyl)piperidin-3-yl]-9-ethyl-8-(2-methylpyrimn-5-yl)-9H-purin-6-amine] | 15 nM | >10
15 | CCn1ncc(-c2nc3c(N[C@H]4CCCN(C(=O)C5CCOCC5)C4)ncnc3n2C)c1C [Compound 2-29, 8-(1-ethyl-5-methyl-1H-pyrazol-4-yl)-9-methyl-N-[(3S)-1-(tetrahydro-2H-pyran-4-ylcarbonyl)piperidin-3-yl]-9H-purin-6-amine] | 11 nM | >10
16 | CCn1c(-c2cnc(C)nc2)nc2c(N[C@H]3CCN(C(=O)CC(C)(C)O)C3)ncnc21 [Compound 2-30, 4-[(3S)-3-{[9-ethyl-8-(2-methylpyrimidin-5-yl)-9H-purin-6-yl]amino}pyrrolidin-1-yl]-2-methyl-4-oxobutan-2-ol] | 15 nM | >10
17 | CCn1c(-c2cnc(C)nc2)nc2c(N[C@H]3CCN(C(=O)CN(C)C)C3)ncnc21 [Compound 2-31, N-{(3S)-1-[(dimethylamino)acetyl]pyrroli-din-3-yl}-9-ethyl-8-(2-methylpyrimidin-5-yl)-9H-purin-6-amine] | 10 nM | >10
18 | CCn1c(-c2cnc(C)nc2)nc2c(N[C@H]3CCN(C(=O)Cc4ccccc4)C3)ncnc21 [Compound 2-36, 9-ethyl-8-(2-methylpyrimidin-5-yl)-N-[(3S)-1-(phenylacetyl)pyrrolidin-3-yl]-9H-purin-6-amine] | 17 nM | >10
19 | CCn1c(-c2cnc(C)nc2)nc2c(N[C@H]3CCN(C(=O)[C@H]4C[C@H](OC)C4)C3)ncnc21 [Compound 2-38, 9-ethyl-N-{(3S)-1-[(trans-3-methoxycyclobutyl)carbonyl]pyrrolidin-3-yl}-8-(2-methylpyrimidin-5-yl)-9H-purin-6-amine] | 1.7 nM | >10
20 | CCn1c(-c2cnc(C)nc2)nc2c(N[C@H]3CCN(C(=O)[C@H]4C[C@@H](OC)C4)C3)ncnc21 [Compound 2-39, 9-ethyl-N-{(3S)-1-[(cis-3-methoxycyclobutyl)carbonyl]pyrrolidin-3-yl}-8-(2-methylpyrimidin-5-yl)-9H-purin-6-amine] | < 1 nM | >10
21 | CCn1c(-c2cnc(C)nc2)nc2c(N[C@H]3CCN(C(=O)[C@@H]4CCOC4)C3)ncnc21 [Compound 2-40, 9-ethyl-8-(2-methylpyrimidin-5-yl)-N-{(3S)-1-[(3R)-tetrahydrofuran-3-ylcarbonyl]pyrrolidin-3-yl}-9H-purin-6-amine] | 1.6 nM | >10
22 | CCn1c(-c2cnc(C)nc2)nc2c(N[C@H]3CCN(C(=O)[C@H]4CCOC4)C3)ncnc21 [Compound 2-41, 9-ethyl-8-(2-methylpyrimidin-5-yl)-N-{(3S)-1-[(3S)-tetrahydrofuran-3-ylcarbonyl]pyrrolidin-3-yl}-9H-purin-6-amine] | 4.3 nM | >10
23 | CCn1c(-c2cnc(C)nc2)nc2c(N[C@H]3CCN(C(=O)[C@H]4CCCN4C)C3)ncnc21 [Compound 2-42, 9-ethyl-N-[(3S)-1-(1-methyl-D-prolyl)pyrrolidin-3-yl]-8-(2-methylpyrimidin-5-yl)-9H-purin-6-amine] | 29 nM | >10
24 | CCn1c(-c2cnc(C)nc2)nc2c(N[C@H]3CCN(C(=O)[C@@H]4CCCN4C)C3)ncnc21 [Compound 2-43, 9-ethyl-N-[(3S)-1-(1-methyl-L-prolyl)pyrrolidin-3-yl]-8-(2-methylpyrimidin-5-yl)-9H-purin-6-amine] | 16 nM | >10
25 | CCn1c(-c2cnc(C)nc2)nc2c(N[C@H]3CCCN(C(=O)C(C)C)C3)ncnc21 [Compound 2-44, 9-ethyl-N-[(3S)-1-(2-methylpropanoyl)piperidin-3-yl]-8-(2-methylpyrimidin-5-yl)-9H-purin-6-amine] | 9 nM | >10
26 | CCC(=O)N1CC(Nc2ncnc3c2nc(-c2cnn(CC)c2C)n3C)C1 [Compound 2-45, 8-(1-ethyl-5-methyl-1H-pyrazol-4-yl)-9-methyl-N-(1-propanoylazetidin-3-yl)-9H-purin-6-amine] | 57 nM | >10
27 | CCC(=O)N1CCC[C@H](Nc2ncnc3c2nc(-c2cnn(CC)c2C)n3C)C1 [Compound 2-46, 8-(1-ethyl-5-methyl-1H-pyrazol-4-yl)-9-methyl-N-[(3S)-1-propanoylpiperidin-3-yl]-9H-purin-6-amine] | 9.2 nM | >10
28 | CCn1c(-c2cnc(C)nc2)nc2c(N[C@H]3CCN(C(=O)C4(C)CC4)C3)ncnc21 [Compound 2-47, 9-ethyl-N-{(3S)-1-[(1-methylcyclopropyl)carbonyl]pyrrolidin-3-yl}-8-(2-methylpyrimidin-5-yl)-9H-purin-6-amine] | 17 nM | >10
29 | CCn1ncc(-c2nc3c(NC4CN(C(=O)C5CCOCC5)C4)ncnc3n2C)c1C [Compound 2-48, 8-(1-ethyl-5-methyl-1H-pyrazol-4-yl)-9-methyl-N-[1-(tetrahydro-2H-pyran-4-ylcarbonyl)azetidin-3-yl]-9H-purin-6-amine] | 16 nM | >10
30 | CCn1c(-c2ccc(C(F)(F)F)nc2)nc2c(N[C@H]3CCN(C(=O)C4CC4)C3)ncnc21 [Compound 2-49, N-[(3S)-1-(cyclopropylcarbonyl)pyrrolidin-3-yl]-9-ethyl-8-[6-(trifluoromethyl)pyridin-3-yl]-9H-purin-6-amine] | 1 nM | >10
